Results taken from PubChem BioAssay (NCI).
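Abbreviation: GI50, concentration required for 50% inhibition of growth. TGI marks complete inhibition of growth.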

How the values were obtained:
Assay in all cases: growth of human tumour cells (NCI), 384-well format
SW-620 colon = tested on: SW-620 colon
UACC-62 melanoma = tested on: UACC-62 melanoma
MCF7 breast = tested on: MCF7 breast
NCI/ADR-RES ovarian = tested on: NCI/ADR-RES ovarian
SR leukemia = tested on: SR leukemia
LOX IMVI melanoma = tested on: LOX IMVI melanoma
RPMI-8226 leukemia = tested on: RPMI-8226 leukemia
SNB-75 CNS = tested on: SNB-75 CNS
A498 renal = tested on: A498 renal
M14 melanoma = tested on: M14 melanoma
OVCAR-3 ovarian = tested on: OVCAR-3 ovarian
SF-268 CNS = tested on: SF-268 CNS
A549 NSCLC = tested on: A549 NSCLC
SK-MEL-2 melanoma = tested on: SK-MEL-2 melanoma
HCT-116 colon = tested on: HCT-116 colon
NCI-H23 lung = tested on: NCI-H23 lung
NCI-H522 lung = tested on: NCI-H522 lung
OVCAR-5 ovarian = tested on: OVCAR-5 ovarian
T-47D breast = tested on: T-47D breast
SF-539 CNS = tested on: SF-539 CNS
HS 578T breast = tested on: HS 578T breast
SF-295 CNS = tested on: SF-295 CNS
MDA-MB-435 melanoma = tested on: MDA-MB-435 melanoma
HOP-92 NSCLC = tested on: HOP-92 NSCLC
MDA-MB-231 breast = tested on: MDA-MB-231 breast
PC-3 prostate = tested on: PC-3 prostate
HCC-2998 colon = tested on: HCC-2998 colon
CCRF-CEM leukemia = tested on: CCRF-CEM leukemia
NCI-H460 NSCLC = tested on: NCI-H460 NSCLC
OVCAR-8 ovarian = tested on: OVCAR-8 ovarian
SNB-19 CNS = tested on: SNB-19 CNS
MDA-MB-468 breast = tested on: MDA-MB-468 breast
K-562 leukemia = tested on: K-562 leukemia
HCT-15 colon = tested on: HCT-15 colon
RXF 393 renal = tested on: RXF 393 renal
EKVX NSCLC = tested on: EKVX NSCLC
HOP-62 NSCLC = tested on: HOP-62 NSCLC
U251 glioblastoma = tested on: U251 glioblastoma
NCI-H322M lung = tested on: NCI-H322M lung
SK-MEL-5 melanoma = tested on: SK-MEL-5 melanoma
KM12 colon = tested on: KM12 colon
ACHN renal = tested on: ACHN renal
IGROV1 ovarian = tested on: IGROV1 ovarian
OVCAR-4 ovarian = tested on: OVCAR-4 ovarian
MALME-3M melanoma = tested on: MALME-3M melanoma
TK-10 renal = tested on: TK-10 renal
CAKI-1 renal = tested on: CAKI-1 renal
BT-549 breast = tested on: BT-549 breast
NCI-H226 lung = tested on: NCI-H226 lung
MOLT-4 leukemia = tested on: MOLT-4 leukemia
786-0 renal = tested on: 786-0 renal
SK-MEL-28 melanoma = tested on: SK-MEL-28 melanoma
SN12C renal = tested on: SN12C renal
COLO 205 colon = tested on: COLO 205 colon
SK-OV-3 ovarian = tested on: SK-OV-3 ovarian
DU-145 prostate = tested on: DU-145 prostate
HL-60(TB) leukemia = tested on: HL-60(TB) leukemia
UO-31 renal = tested on: UO-31 renal
UACC-257 melanoma = tested on: UACC-257 melanoma
HT29 colon = tested on: HT29 colon

Work on `COc1cc2nc(C)nc(N[C@H](C)c3cc(N)cc(C(F)(F)F)c3)c2cc1O[C@H]1CCOC1` yielded a GI50 (SW-620 colon) of 14.1 µM, a TGI (SW-620 colon) of 27.2 µM and a GI50 (UACC-62 melanoma) of 13.4 µM. It also gave a TGI (UACC-62 melanoma) of 26.2 µM, a GI50 (MCF7 breast) of 11.3 µM and a TGI (MCF7 breast) of 23.5 µM. The GI50 (NCI/ADR-RES ovarian) was 12.5 µM, the TGI (NCI/ADR-RES ovarian) was 25.4 µM and the GI50 (SR leukemia) was 1.54 µM. The TGI (SR leukemia) was 8.64 µM, the GI50 (LOX IMVI melanoma) was 13.4 µM and the TGI (LOX IMVI melanoma) was 26.3 µM. It also gave a GI50 (RPMI-8226 leukemia) of 2.13 µM, a TGI (RPMI-8226 leukemia) of 13.2 µM and a GI50 (SNB-75 CNS) of 6.26 µM. It also gave a TGI (SNB-75 CNS) of 20 µM, a GI50 (A498 renal) of 8.87 µM and a TGI (A498 renal) of 21.3 µM. For the same compound, the GI50 (M14 melanoma) was 11.7 µM, the TGI (M14 melanoma) was 23.9 µM and the GI50 (OVCAR-3 ovarian) was 6.28 µM. For the same compound, the TGI (OVCAR-3 ovarian) was 20.1 µM, the GI50 (SF-268 CNS) was 13.5 µM and the TGI (SF-268 CNS) was 26.3 µM. For the same compound, the GI50 (A549 NSCLC) was 14.5 µM, the TGI (A549 NSCLC) was 27.8 µM and the GI50 (SK-MEL-2 melanoma) was 11.1 µM. The TGI (SK-MEL-2 melanoma) was 23.1 µM, the GI50 (HCT-116 colon) was 10.5 µM and the TGI (HCT-116 colon) was 22.4 µM. It also gave a GI50 (NCI-H23 lung) of 3.42 µM, a TGI (NCI-H23 lung) of 17.7 µM and a GI50 (NCI-H522 lung) of 2.34 µM. It also gave a TGI (NCI-H522 lung) of 19.4 µM, a GI50 (OVCAR-5 ovarian) of 11 µM and a TGI (OVCAR-5 ovarian) of 23.1 µM. The GI50 (T-47D breast) was 10.2 µM, the TGI (T-47D breast) was 21.9 µM and the GI50 (SF-539 CNS) was 12.7 µM. For the same compound, the TGI (SF-539 CNS) was 25.3 µM, the GI50 (HS 578T breast) was 2.1 µM and the TGI (HS 578T breast) was 15.9 µM. The GI50 (SF-295 CNS) was 12.8 µM, the TGI (SF-295 CNS) was 25.4 µM and the GI50 (MDA-MB-435 melanoma) was 14.5 µM. The TGI (MDA-MB-435 melanoma) was 27.6 µM, the GI50 (HOP-92 NSCLC) was 0.0895 µM and the TGI (HOP-92 NSCLC) was 5.19 µM. It also gave a GI50 (MDA-MB-231 breast) of 13.5 µM, a TGI (MDA-MB-231 breast) of 26.6 µM and a GI50 (PC-3 prostate) of 11 µM. The TGI (PC-3 prostate) was 23.1 µM, the GI50 (HCC-2998 colon) was 3.6 µM and the TGI (HCC-2998 colon) was 15.9 µM. It also gave a GI50 (CCRF-CEM leukemia) of 9.35 µM, a TGI (CCRF-CEM leukemia) of 21.3 µM and a GI50 (NCI-H460 NSCLC) of 12 µM. The TGI (NCI-H460 NSCLC) was 24.6 µM, the GI50 (OVCAR-8 ovarian) was 12.7 µM and the TGI (OVCAR-8 ovarian) was 25.3 µM. It also gave a GI50 (SNB-19 CNS) of 12.5 µM, a TGI (SNB-19 CNS) of 25.1 µM and a GI50 (MDA-MB-468 breast) of 1.35 µM. It also gave a TGI (MDA-MB-468 breast) of 11.3 µM, a GI50 (K-562 leukemia) of 0.0364 µM and a TGI (K-562 leukemia) of 12.5 µM. For the same compound, the GI50 (HCT-15 colon) was 11.6 µM, the TGI (HCT-15 colon) was 23.9 µM and the GI50 (RXF 393 renal) was 2.43 µM. For the same compound, the TGI (RXF 393 renal) was 12.1 µM, the GI50 (EKVX NSCLC) was 2.73 µM and the TGI (EKVX NSCLC) was 16.2 µM. It also gave a GI50 (HOP-62 NSCLC) of 6.98 µM, a TGI (HOP-62 NSCLC) of 20.1 µM and a GI50 (U251 glioblastoma) of 10.9 µM. The TGI (U251 glioblastoma) was 22.8 µM, the GI50 (NCI-H322M lung) was 11.1 µM and the TGI (NCI-H322M lung) was 23.1 µM. The GI50 (SK-MEL-5 melanoma) was 3.15 µM, the TGI (SK-MEL-5 melanoma) was 17.1 µM and the GI50 (KM12 colon) was 0.98 µM. The TGI (KM12 colon) was 17.1 µM, the GI50 (ACHN renal) was 13.8 µM and the TGI (ACHN renal) was 26.7 µM. For the same compound, the GI50 (IGROV1 ovarian) was 8.69 µM, the TGI (IGROV1 ovarian) was 21.5 µM and the GI50 (OVCAR-4 ovarian) was 8.7 µM. It also gave a TGI (OVCAR-4 ovarian) of 21.4 µM, a GI50 (MALME-3M melanoma) of 8.63 µM and a TGI (MALME-3M melanoma) of 21.1 µM. The GI50 (TK-10 renal) was 10.9 µM, the TGI (TK-10 renal) was 22.9 µM and the GI50 (CAKI-1 renal) was 1.97 µM. The TGI (CAKI-1 renal) was 17 µM, the GI50 (BT-549 breast) was 8.77 µM and the TGI (BT-549 breast) was 21.2 µM. For the same compound, the GI50 (NCI-H226 lung) was 3.24 µM, the TGI (NCI-H226 lung) was 19.1 µM and the GI50 (MOLT-4 leukemia) was 4.45 µM. For the same compound, the TGI (MOLT-4 leukemia) was 17.4 µM, the GI50 ([…]-0 renal) was 11.8 µM and the TGI (786-0 renal) was 24.2 µM. The GI50 (SK-MEL-28 melanoma) was 12.6 µM, the TGI (SK-MEL-28 melanoma) was 25.2 µM and the GI50 (SN12C renal) was 2.86 µM. The TGI (SN12C renal) was 18.2 µM, the GI50 (COLO 205 colon) was 14 µM and the TGI (COLO 205 colon) was 27.1 µM. For the same compound, the GI50 (SK-OV-3 ovarian) was 12.5 µM, the TGI (SK-OV-3 ovarian) was 25.1 µM and the GI50 (DU-145 prostate) was 14.6 µM. The TGI (DU-145 prostate) was 27.9 µM, the GI50 (HL-60(TB) leukemia) was 3.91 µM and the TGI (HL-60(TB) leukemia) was 14.4 µM. For the same compound, the GI50 (UO-31 renal) was 12.2 µM, the TGI (UO-31 renal) was 24.7 µM and the GI50 (UACC-257 melanoma) was 4.86 µM. It also gave a TGI (UACC-257 melanoma) of 16.6 µM, a GI50 (HT29 colon) of 4.69 µM and a TGI (HT29 colon) of 16.2 µM.
